Measurements reported in patent US7196110B2, “N-substituted tricyclic 3-aminopyrazoles as inhibitors for the treatment of cell proliferative disorders” (Janssen Phamaceutica N.V., priority 2002, dated 2007).

Legend:
[1] = system: PDGF-BB-stimulated angiogenesis; test: Anti-angiogenesis matrigel mouse model (MM assay) supplemented with PDGF-BB, plug hemoglobin content; format: in vivo, mice (C57BL/6J); conditions: mice
Description: Angiogenesis inhibitory activity of a compound of this invention can be measured in vivo using the matrigel mouse model (MM Assay) of angiogenesis (Passaniti et al., Laboratory Investigation, 67: 519–528, 1992). The matrigel mouse assay is a well-established method to quantify angiogenesis (see e g. Capogrossi et al., Methods in Molecular Medicine, Vascular Disease: Molecular Biology and Gene Therapy Protocols, Edited by: A. H. Baker, Humana Press Inc., Totowa, N.J., 1999). The model has been characterized extensively for its relevance as a mimic of the process of angiogenesis and has been used extensively to evaluate in vivo both potential angiogenic and anti-angiogenic activity of numerous compounds/agents. […] All procedures involving animals were conducted in an animal facility fully accredited by the American Association for Assessment and Accreditation of Laboratory Animal Care (AAALAC) and in accordance with The Guide for the Care and Use of Laboratory Animals (NIH). […]
Normal male mice (C57BL/6J) were injected subcutaneously (ventrally below rib cage at abdominal midline) with 1.0 mL of chilled matrigel supplemented with a single purified pro-angiogenic growth factor (100–500 ng/mL of either rhPDGF-BB (supra), recombinant human basic fibroblast growth factor, rhFGF-basic (R&D System Cat. No 233-FB) or recombinant human vascular endothelial growth factor, rhVEGF (PanVera Cat. No R2951) and heparin (35 U/mL). Compounds are formulated as 0.1% suspensions (1 mg/mL final concentration) in 0.5% methylcellulose. Vehicle or test compounds (8–10 mice per treatment group) were administered orally by gavage beginning two hours after matrigel injections. […] Supernatants were removed and the hemoglobin concentration in the plug extract was measured spectrophotometrically using the Drabkin's assay method (Drabkin's reagent kit 525-A; SIGMA) and read on a Beckman DU 7400 Spectrophotometer. […] Group differences were analyzed statistically using the Mann-Whitney Test, with a p-value of 0.05 or less considered statistically significant. […]

DU145 (prostate cancer) = test: Clonogenicity assay, compound in combination with irradiation, DU145; format: cell-based, human
Method: Radiotherapy is a major therapeutic modality in treating many types of cancers including human prostate and ovarian cancers. The anti-proliferative activity of compounds within the scope of the invention was tested in combination with irradiation treatment.
Cells DU145 (prostate cancer) and MDAH2774 (ovarian cancer) were obtained from ATCC; growth media MEM medium (Mediatech, Herndon, Va.) was supplemented with 8% FBS, 5 U/ml penicillin and 50 μg/ml Streptomycin (Hyclone, Logan, Utah), 2 mM L-glutamine (Hyclone, Logan, Utah), 25 mM HEPES (Hyclone, Logan, Utah); McCoy's 5A medium (Mediatech, Herndon, Va.) was supplemented with 8% FBS, 50 U/ml penicillin and 50 μg/ml-Strep (Hyclone, Logan, Utah) and Glutamine 2 mM L-glutamine (Hyclone, Logan, Utah), ^137CS γ-source was a Gammacell 1000 Elite irradiator (MDS Nordion, Kanata, Ontario, Canada); DMSO; 1× PBS; Methanol; 0.25% Crystal Violet, and 60 mm tissue culture dishes.
DU145 or MDAH2774 cells at desired cell number were plated in early log phase on 60 mm dishes in MEM medium supplemented with 8% FBS, Penicillin, Streptomycin, L-glutamine, or McCoys medium supplemented with 8% FBS, Penicillin, Streptomycin and Glutamine, respectively. Cells were plated in triplicate. […] The final concentrations of the compound in the cell media ranged from 1 to 100 nM. After 24 h incubation with the test compound plates were split in two groups of equal size. The plates in the first group were irradiated with 7.3 Gy (plates containing DU145 cells) or 5.4 Gy (plates containing MDAH2774 cells) using a ^137Cs γ-source (dose rate 3.32 Gy/min). The second group of plates were treated identically but not irradiated. Cells were incubated for an additional 24 hours in medium containing test compound. Then, the cells were replenished with fresh compound-free identical medium and allowed to grow for an additional 11 days. Cells were then fixed with methanol, stained with 0.25% crystal violet, and the clones containing more than 50 cells were counted.
The activity appeared to be concentration-dependent with more dramatic effects achieved at 100 nM compound with radiation in either cell line.

[2] = system: Human tumor cell lines (LoVo, MDA-MB-231, H460 etc.); test: Anti-tumor assay, human tumor nude mouse xenograft model; format: in vivo, athymic nude mice; conditions: 50 mg/kg
Method: The anti-tumor activity of experimental compounds was evaluated in vivo using the human tumor nude mouse xenograft model. All procedures involving animals were conducted in an animal facility fully accredited by the American Association for Assessment and Accreditation of Laboratory Animal Care (AAALAC) and in accordance with The Guide for the Care and Use of Laboratory Animals (NIH). Protocols were approved by the RWJ-PRI Internal Animal Care and Use Committee (IACUC).
Human tumor cell lines (LoVo, MDA-MB-231, H460 etc.) were obtained from American Type Culture Collection and cultured under specified conditions required for each cell type. Female athymic nude mice (Charles River nu/nu) were injected subcutaneously in the inguinal region of the thigh with 1–2×10^6 tumor cells in 0.1 mL volume on day zero. For growth delay studies, mice were dosed orally with vehicle (control group) or experimental drugs beginning three days after tumor cell inoculation. Compounds were prepared in 0.5% methylcellulose and treatments were administered bid for 30–35 consecutive days. Tumor growth was measured twice a week using calipers for the duration of the treatment. Tumor areas (mm^2) were calculated as a product of length×width. […] Differences between treated and control mice were analyzed statistically by ANOVA and Dunnett's t-test. […]

SMILES | % Inhibition @ 30 mg/kg po (angiogenesis, MM assay supplemented with PDGF-BB) [1] | colony formation inhibition with versus without radiation, DU145 (DU145 (prostate cancer); 7.3 Gy, compound 1 to 100 nM) | No. of DU145 Clones (average of three plates) (DU145 (prostate cancer); W/o Radiation, 200 cells initially plated, compound 1 nM) | No. of DU145 Clones (average of three plates) (DU145 (prostate cancer); W/o Radiation, 200 cells initially plated, compound 3 nM) | No. of DU145 Clones (average of three plates) (DU145 (prostate cancer); W/o Radiation, 200 cells initially plated, compound 10 nM) | No. of DU145 Clones (average of three plates) (DU145 (prostate cancer); W/o Radiation, 200 cells initially plated, compound 30 nM) | No. of DU145 Clones (average of three plates) (DU145 (prostate cancer); W/o Radiation, 200 cells initially plated, compound 100 nM) | concentration from which marked inhibitory activity against colony formation was shown, DU145 (DU145 (prostate cancer); in the presence or absence of radiation (7.3 Gy)) | No. of DU145 Clones (average of three plates) (DU145 (prostate cancer); w/Radiation (7.3 Gy), 1200 cells initially plated, compound 1 nM) | No. of DU145 Clones (average of three plates) (DU145 (prostate cancer); w/Radiation (7.3 Gy), 1200 cells initially plated, compound 3 nM) | No. of DU145 Clones (average of three plates) (DU145 (prostate cancer); w/Radiation (7.3 Gy), 1200 cells initially plated, compound 10 nM) | No. of DU145 Clones (average of three plates) (DU145 (prostate cancer); w/Radiation (7.3 Gy), 1200 cells initially plated, compound 30 nM) | No. of DU145 Clones (average of three plates) (DU145 (prostate cancer); w/Radiation (7.3 Gy), 1200 cells initially plated, compound 100 nM) | tumor growth inhibition [2]
COc1cc2c(cc1OC)-c1n[nH]c(Nc3ccccc3F)c1C2 [Compound 12, (6,7-Dimethoxy-2,4-dihydro-indeno[1,2-c]pyrazol-3-yl)-(2-fluoro-phenyl)-amine] | 45% |  |  |  |  |  |  |  |  |  |  |  |  | 
COc1cc2c(cc1OC)-c1n[nH]c(Nc3cccc(F)c3)c1C2 [Compound 14, (3-Fluoro-phenyl)-(6,7-dimethoxy-2,4-dihydro-indeno[1,2-c]pyrazol-3-yl)-amine] | 40% | the inhibitory effect was greater with radiation | 118 | 108 | 111 | 100 | 22 | ≥ 30 nM | 117 | 100 | 126 | 57 | 5 | 72%
